Test results published in ChEMBL document CHEMBL3885861, “Open TG-GATES”.

Species: Rattus norvegicus
Assay: Open TG-GATES - Regimen: Single
Format: toxicity, organism-based, Sprague-Dawley
Design: regimen Single, gender Male, age 6 weeks
Conditions: in vivo, po, route gavage; for Bas / Eos / Fbg / Hb / Ht / Lym / MCH / MCHC / MCV / Mono / Neu / PT / Plat / RBC / Ret / WBC: tissue Blood; for KIDNEY_L / KIDNEY_R / KIDNEY_TOTAL: tissue Kidney; for LIVER: tissue Liver; for ALP / ALT / AST / BUN / CRE / Ca / Cl / DBIL / GLC / IP / K / LDH / Na / PL / RALB / TBIL / TC / TG / TP / gamma-GTP: tissue Plasma
[1] = 150 mg/kg, 3 h, dose level Middle
[2] = 150 mg/kg, 6 h, dose level Middle
[3] = 150 mg/kg, 9 h, dose level Middle
[4] = 150 mg/kg, 24 h, dose level Middle

## CN(C)CCCN1c2ccccc2Sc2ccc(Cl)cc21 [CHLORPROMAZINE]
45 mg/kg, 9 h, dose level Low
  TERMINAL_BW: 211.4 g
  Bas: 0%
  Eos: 1%
  Fbg: 219.2 mg/dL
  Hb: 12.8 g/dL
  Ht: 37.4%
  Lym: 76.6%
  MCH: 21.4 pg
  MCHC: 34.1%
  MCV: 62.7 fL
  Mono: 2.8%
  Neu: 18.8%
  PT: 12.3 s
  Plat: 128.5 x10_4/uL
  RBC: 596.6 x10_4/ul
  Ret: 8%
  WBC: 53.8 x10_2/uL
  KIDNEY_L: 0.9 g
  KIDNEY_R: 0.9 g
  KIDNEY_TOTAL: 1.8 g
  LIVER: 9.1 g
  ALP: 807.4 IU/L
  ALT: 28.2 IU/L
  AST: 63.2 IU/L
  BUN: 9.4 mg/dL
  CRE: 0.4 mg/dL
  Ca: 10.4 mg/dL
  Cl: 106.4 meq/L
  DBIL: 0.07 mg/dL
  GLC: 263.8 mg/dL
  IP: 9.6 mg/dL
  K: 3.6 meq/L
  LDH: 215.6 IU/L
  Na: 143.4 meq/L
  PL: 147.2 mg/dL
  RALB: 3.4 g/dL
  TBIL: 0.1 mg/dL
  TC: 84.4 mg/dL
  TG: 14 mg/dL
  TP: 5.6 g/dL
  gamma-GTP: 0.8 IU/L
45 mg/kg, 24 h, dose level Low
  TERMINAL_BW: 211.2 g
  Bas: 1%
  Eos: 0.8%
  Fbg: 213.6 mg/dL
  Hb: 14.3 g/dL
  Ht: 42%
  Lym: 77.8%
  MCH: 21.7 pg
  MCHC: 33.9%
  MCV: 64.1 fL
  Mono: 2.4%
  Neu: 17.6%
  PT: 11.7 s
  Plat: 137.7 x10_4/uL
  RBC: 656.8 x10_4/ul
  Ret: 7.5%
  WBC: 87 x10_2/uL
  KIDNEY_L: 1 g
  KIDNEY_R: 1 g
  KIDNEY_TOTAL: 2 g
  LIVER: 9.2 g
  ALP: 861 IU/L
  ALT: 35.8 IU/L
  AST: 84 IU/L
  BUN: 21.8 mg/dL
  CRE: 0.5 mg/dL
  Ca: 10.7 mg/dL
  Cl: 104.6 meq/L
  DBIL: 0.062 mg/dL
  GLC: 217.8 mg/dL
  IP: 8.9 mg/dL
  K: 3.8 meq/L
  LDH: 239.4 IU/L
  Na: 144 meq/L
  PL: 132.2 mg/dL
  RALB: 3.7 g/dL
  TBIL: 0.1 mg/dL
  TC: 70.8 mg/dL
  TG: 76.4 mg/dL
  TP: 5.9 g/dL
  gamma-GTP: 1 IU/L
[1]
  TERMINAL_BW: 221.2 g
  Bas: 0%
  Eos: 0.8%
  Fbg: 211.2 mg/dL
  Hb: 12.6 g/dL
  Ht: 37.6%
  Lym: 73.4%
  MCH: 21.3 pg
  MCHC: 33.5%
  MCV: 63.4 fL
  Mono: 2.6%
  Neu: 22.2%
  PT: 12.4 s
  Plat: 120.3 x10_4/uL
  RBC: 593.4 x10_4/ul
  Ret: 8.4%
  WBC: 49.8 x10_2/uL
  KIDNEY_L: 0.9 g
  KIDNEY_R: 0.9 g
  KIDNEY_TOTAL: 1.8 g
  LIVER: 9.9 g
  ALP: 942 IU/L
  ALT: 33.4 IU/L
  AST: 71.4 IU/L
  BUN: 10.8 mg/dL
  CRE: 0.4 mg/dL
  Ca: 10.9 mg/dL
  Cl: 105.6 meq/L
  DBIL: 0.062 mg/dL
  GLC: 229.6 mg/dL
  IP: 10.3 mg/dL
  K: 3.8 meq/L
  LDH: 212.2 IU/L
  Na: 145.2 meq/L
  PL: 132.2 mg/dL
  RALB: 3.4 g/dL
  TBIL: 0.1 mg/dL
  TC: 69.8 mg/dL
  TG: 61.8 mg/dL
  TP: 5.4 g/dL
  gamma-GTP: 1 IU/L
[2]
  TERMINAL_BW: 215.2 g
  Bas: 0%
  Eos: 1%
  Fbg: 209.8 mg/dL
  Hb: 12.4 g/dL
  Ht: 36.4%
  Lym: 73%
  MCH: 21 pg
  MCHC: 34.2%
  MCV: 61.6 fL
  Mono: 2.4%
  Neu: 23%
  PT: 12.7 s
  Plat: 122.6 x10_4/uL
  RBC: 591.2 x10_4/ul
  Ret: 7.9%
  WBC: 46.9 x10_2/uL
  KIDNEY_L: 0.9 g
  KIDNEY_R: 1 g
  KIDNEY_TOTAL: 1.9 g
  LIVER: 9.4 g
  ALP: 685.2 IU/L
  ALT: 29.4 IU/L
  AST: 67.2 IU/L
  BUN: 9.4 mg/dL
  CRE: 0.4 mg/dL
  Ca: 10.4 mg/dL
  Cl: 105.6 meq/L
  DBIL: 0.064 mg/dL
  GLC: 246.2 mg/dL
  IP: 10.5 mg/dL
  K: 3.5 meq/L
  LDH: 214.6 IU/L
  Na: 144.4 meq/L
  PL: 127.6 mg/dL
  RALB: 3.3 g/dL
  TBIL: 0.1 mg/dL
  TC: 72.6 mg/dL
  TG: 26.2 mg/dL
  TP: 5.3 g/dL
  gamma-GTP: 0.8 IU/L
[3]
  TERMINAL_BW: 211.5 g
  Bas: 0%
  Eos: 1%
  Fbg: 222.4 mg/dL
  Hb: 12.4 g/dL
  Ht: 36.9%
  Lym: 71.8%
  MCH: 21.1 pg
  MCHC: 33.7%
  MCV: 62.7 fL
  Mono: 4%
  Neu: 20%
  PT: 12.7 s
  Plat: 126.5 x10_4/uL
  RBC: 590.6 x10_4/ul
  Ret: 8.3%
  WBC: 40.7 x10_2/uL
  KIDNEY_L: 0.9 g
  KIDNEY_R: 0.9 g
  KIDNEY_TOTAL: 1.8 g
  LIVER: 8.8 g
  ALP: 813.8 IU/L
  ALT: 29 IU/L
  AST: 64.2 IU/L
  BUN: 10.6 mg/dL
  CRE: 0.4 mg/dL
  Ca: 10.6 mg/dL
  Cl: 105.6 meq/L
  DBIL: 0.07 mg/dL
  GLC: 237.8 mg/dL
  IP: 10.8 mg/dL
  K: 3.6 meq/L
  LDH: 171.4 IU/L
  Na: 143.2 meq/L
  PL: 136.6 mg/dL
  RALB: 3.4 g/dL
  TBIL: 0.1 mg/dL
  TC: 81 mg/dL
  TG: 17.6 mg/dL
  TP: 5.4 g/dL
  gamma-GTP: 1 IU/L
[4]
  TERMINAL_BW: 194.9 g
  Bas: 0.4%
  Eos: 1%
  Fbg: 215.4 mg/dL
  Hb: 13.6 g/dL
  Ht: 39.9%
  Lym: 69.2%
  MCH: 21.3 pg
  MCHC: 34.2%
  MCV: 62.3 fL
  Mono: 5.2%
  Neu: 23.2%
  PT: 11.4 s
  Plat: 152.2 x10_4/uL
  RBC: 640.4 x10_4/ul
  Ret: 7.1%
  WBC: 43.7 x10_2/uL
  KIDNEY_L: 0.9 g
  KIDNEY_R: 0.9 g
  KIDNEY_TOTAL: 1.8 g
  LIVER: 7.8 g
  ALP: 873.2 IU/L
  ALT: 24.6 IU/L
  AST: 82 IU/L
  BUN: 14.2 mg/dL
  CRE: 0.4 mg/dL
  Ca: 10.5 mg/dL
  Cl: 104.4 meq/L
  DBIL: 0.072 mg/dL
  GLC: 239 mg/dL
  IP: 10.6 mg/dL
  K: 3.7 meq/L
  LDH: 257.2 IU/L
  Na: 144.8 meq/L
  PL: 138 mg/dL
  RALB: 3.6 g/dL
  TBIL: 0.1 mg/dL
  TC: 77.6 mg/dL
  TG: 21.2 mg/dL
  TP: 5.8 g/dL
  gamma-GTP: 0.8 IU/L
